Laboratory results reported in the Kinase Knowledgebase extract (Sharma et al. 2016).

Target: PIK3CB (Human) (UniProt P42338)
Assay: Enzyme Assay
Conditions: not given

Sequence of PIK3CB (Human) (P42338 whole entry, looked up): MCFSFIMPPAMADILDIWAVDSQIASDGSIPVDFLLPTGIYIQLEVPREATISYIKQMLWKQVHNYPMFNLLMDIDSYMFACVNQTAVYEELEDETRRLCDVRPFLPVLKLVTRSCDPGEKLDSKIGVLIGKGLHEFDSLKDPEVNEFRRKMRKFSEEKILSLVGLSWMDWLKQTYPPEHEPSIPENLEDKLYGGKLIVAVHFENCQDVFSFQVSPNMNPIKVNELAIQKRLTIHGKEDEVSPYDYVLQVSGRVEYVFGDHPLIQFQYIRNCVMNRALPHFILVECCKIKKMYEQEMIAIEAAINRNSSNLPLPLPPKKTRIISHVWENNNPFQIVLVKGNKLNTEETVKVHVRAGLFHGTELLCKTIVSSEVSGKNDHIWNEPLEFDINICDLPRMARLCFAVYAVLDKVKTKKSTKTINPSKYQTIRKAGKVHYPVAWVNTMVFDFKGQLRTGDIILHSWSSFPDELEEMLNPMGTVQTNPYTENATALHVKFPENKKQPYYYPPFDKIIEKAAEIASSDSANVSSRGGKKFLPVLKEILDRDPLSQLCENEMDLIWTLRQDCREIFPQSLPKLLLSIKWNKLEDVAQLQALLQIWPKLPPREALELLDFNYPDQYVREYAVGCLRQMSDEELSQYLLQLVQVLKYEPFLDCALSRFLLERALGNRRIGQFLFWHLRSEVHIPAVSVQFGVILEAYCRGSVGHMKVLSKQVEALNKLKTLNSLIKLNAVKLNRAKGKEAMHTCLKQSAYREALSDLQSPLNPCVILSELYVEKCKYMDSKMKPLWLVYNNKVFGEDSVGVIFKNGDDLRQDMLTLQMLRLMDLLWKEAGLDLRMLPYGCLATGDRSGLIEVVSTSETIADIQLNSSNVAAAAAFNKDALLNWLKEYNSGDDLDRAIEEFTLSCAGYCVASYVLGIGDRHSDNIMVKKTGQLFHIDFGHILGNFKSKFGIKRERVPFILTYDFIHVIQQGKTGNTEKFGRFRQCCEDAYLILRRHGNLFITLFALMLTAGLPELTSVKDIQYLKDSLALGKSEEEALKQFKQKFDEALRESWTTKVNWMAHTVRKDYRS

SMILES | IC50 [µM]
CC1=NC(=O)C2SC(N3CCOCC3)=NC2N1Cc1cccc(C(F)(F)F)c1C (configuration not stated) | 0.000631
Cc1c(Cc2c(O)nn3c(O)cc(C4CCOCC4)nc23)cccc1C(F)(F)F | 0.0631

Target: PIK3CB (Human) (UniProt P42338)
Assay: Cell-Based Assay
Conditions: mda-mb-468

SMILES | EC50 [µM]
Cc1nn2c(C(=O)O)cc(N3CCOCC3)nc2c1Cc1cccc(C(F)(F)F)c1C | 3.16
Cc1nn2c(NC(N)=O)cc(N3CCOCC3)nc2c1Cc1cccc(C(F)(F)F)c1C | 1.26
Nc1nn2c(O)cc(C3CCOCC3)nc2c1Cc1cccc(Cl)c1Cl | 10
Cc1nn2c(O)cc(N3CCOCC3)nc2c1Cc1cccc(C(F)(F)F)c1C | 5.01
Cc1nn2c(O)cc(N3CCOCC3)nc2c1Cc1cccc2ccccc12 | 3.98
Cc1nn2c(O)cc(C3CCOCC3)nc2c1Cc1cccc(C(F)(F)F)c1C | 15.8
Cc1c(Cc2cnn3c(O)cc(-c4ccncc4)nc23)cccc1C(F)(F)F | 15.8
Cc1c(Cc2cnn3c(O)cc(N4CCOCC4)nc23)cccc1C(F)(F)F | 3.16
COc1nn2c(O)cc(-c3ccncc3)nc2c1Cc1cccc(Cl)c1Cl | 25.1
Cc1nn2c(C(N)=O)cc(N3CCOCC3)nc2c1Cc1cccc(C(F)(F)F)c1C | 2
